Patent US4452778A, “Synergistic antibacterial compositions and method of treatment of infections caused by multiple antibiotic-resistant organisms” (Eli Lilly and Company, priority 1981, dated 1984)
Where two headings read alike, the source gives them in different places.

Tested on: Serratia marcescens
Test: Checkerboard broth dilution synergy study (mic)
Format: cell-based
Details: for MIC: Serratia marcescens, read-out: mic, drug alone

COC1(NC(=O)C(C(=O)O)c2ccc(O)cc2)C(=O)N2C(C(=O)O)=C(CSc3nnnn3C)COC21 (stereo not shown) [1-oxa compound I, moxalactam]
MIC (Table II, strain 100): 0.25 µg/mL | MIC (Table II, strain 302-2): 1 µg/mL | MIC (Table II, strain 796): 8 µg/mL | MIC (Table II, strain 14142): 1 µg/mL | MIC (Table II, strain Townsend): 4 µg/mL | MIC (Table III, isolate 463-2): 8 µg/mL | MIC (Table III, isolate 606): 4 µg/mL | MIC (Table III, isolate 1414): 1 µg/mL | MIC (Table III, isolate B377): 8 µg/mL | MIC (Table III, isolate Ziegler): 4 µg/mL | mic of each drug in combination I + P (Table II, strain 100): 0.12 µg/mL | mic of each drug in combination I + T (Table II, strain 100): 0.12 µg/mL | mic of each drug in combination I + P (Table II, strain 302-2): 0.12 µg/mL | mic of each drug in combination I + T (Table II, strain 302-2): 0.12 µg/mL | mic of each drug in combination I + P (Table II, strain 796): 2 µg/mL | mic of each drug in combination I + T (Table II, strain 796): 2 µg/mL | mic of each drug in combination I + P (Table II, strain 14142): 0.12 µg/mL | mic of each drug in combination I + T (Table II, strain 14142): 0.25 µg/mL | mic of each drug in combination I + P (Table II, strain Townsend): 2 µg/mL | mic of each drug in combination I + T (Table II, strain Townsend): 1 µg/mL | mic of each drug in combination I + A (Table III, isolate 463-2): < 0.06 µg/mL | mic of each drug in combination I + A (Table III, isolate 606): 0.5 µg/mL | mic of each drug in combination I + A (Table III, isolate 1414): 0.06 µg/mL | mic of each drug in combination I + A (Table III, isolate B377): 0.12 µg/mL | mic of each drug in combination I + A (Table III, isolate Ziegler): 0.06 µg/mL
